Measurements as given in patent US20160320368A1, “METHOD AND APPARATUS FOR PREDICTING EFFECTIVE DOSE OR SENSITIVITY OF 5-HYDROXY-1H-IMIDAZOLE-4-CARBOXAMIDE, METHOD FOR DETERMINING AMOUNT OF XANTHOSINE MONOPHOSPHATE, AND TREATMENT AGENT AND METHOD FOR TREATING MYELODYSPLASTIC SYNDROME” (FUJIFILM Corporation, priority 2014, published 2016).

System: XMP in whole blood
Assay: XMP in whole blood (Example 5)
Assay type: cell-based, human
Conditions: 37° C., 8 hours, non-treated = 100%
Procedure: A ¾ hydrate of Compound A was used s a test compound.
450 μL of the blood collected from two healthy individuals by heparinized blood collection (Analyte A and Analyte B) was added to each tube, and 50 μL of a PBS solution of the test compound (0 μg/mL, 10 μg/mL, 30 μg/mL, 100 μg/mL, 300 μg/mL, or 1000 μg/mL in terms of Compound A) for each concentration was added to each tube. The reaction mixture was stirred in an incubator at 37° C. for 8 hours.
400 μL of methanol was added to 100 μL of the blood sample obtained in (1). After stirring, 400 μL of chloroform was added, followed by further stirring. 120 μL of ultrapure water was added thereto, followed by stirring and then centrifugation at 4° C. and 10000×g for 15 min. 400 μL of the aqueous phase was recovered and added to an ultrafiltration tube, followed by centrifugation at 12° C. and 9200×g for 2 hours. The filtrate was dried under reduced pressure at 40° C. for 2 hours by using a centrifugal evaporator. After drying, the resulting product was stored in a freezer at −80° C.
The samples obtained in (2-1) and (2-2) were returned to room temperature and 40 μL of ultrapure water was added to each sample. The mixture was stirred and centrifuged at 4° C. and 21500×g for 5 min. 35 μL of the supernatant was transferred to a vial. After storage at 4° C., XMP in samples was determined in the LC-MS/MS determination instrument, LC conditions and MS/MS conditions described in Example 3 (3).
Amounts of XMP (%) were calculated assuming that amounts of XMP in a non-Compound A treated group are defined as 100%.

For `NC(=O)c1nc[nH]c1O` [Compound A, 5-Hydroxy-1H-imidazole-4-carboxamide], the “Amount of XMP (%) Analyte A Whole blood” value (Compound A 1 μg/mL) was 57%, the “Amount of XMP (%) Analyte B Whole blood” value (Compound A 1 μg/mL) was 44% and the “Amount of XMP (%) Analyte A Whole blood” value (Compound A 3 μg/mL) was 53%. The “Amount of XMP (%) Analyte B Whole blood” value (Compound A 3 μg/mL) was 27%, the “Amount of XMP (%) Analyte A Whole blood” value (Compound A 10 μg/mL) was 47% and the “Amount of XMP (%) Analyte B Whole blood” value (Compound A 10 μg/mL) was 15%. The “Amount of XMP (%) Analyte A Whole blood” value (Compound A 30 μg/mL) was 26%, the “Amount of XMP (%) Analyte B Whole blood” value (Compound A 30 μg/mL) was 11% and the “Amount of XMP (%) Analyte A Whole blood” value (Compound A 100 μg/mL) was 15%. The “Amount of XMP (%) Analyte B Whole blood” value (Compound A 100 μg/mL) was 9%.
